The values that follow are results of earlier work, collected in US20210330638A1, “NANO-PENETRATIVE CANNABINOID OIL BLENDS AND COMPOSITIONS AND METHODS OF FORMULATION THEREOF” (Theragun, Inc., priority 2020, published 2021).

For this data set the following is noted: in vivo.

Take `CC1=CCC2CC1C2(C)C` (stereo not drawn) [a-Pinene, alpha-pinene]: the pulmonary uptake is 60%.
